# Measurements: US12570612B2, “Substituted nitrogen heterocyclic compound and anesthetic effect thereof” (priority 2019, dated 2026)
# System: Sprague-Dawley rats
# Test: not given
# Type: in vivo
# Details: tail vein
row,SMILES,Minimal lethal dose [mg/kg]
1,COC(OC)(OCC(C)(C)C)C(=O)c1ccnn1[C@H](C)c1ccccc1 [Compound D6],>12.4
2,CCOC(OCC)C(=O)c1c(F)ncn1[C@H](C)c1ccccc1 [Compound D101],>9.3
3,COC(OC)(OC)C(=O)c1c(F)ncn1[C@H](C)c1ccccc1 [Compound D93],>1.8
4,C[C@H](c1ccccc1)n1cncc1C(=O)C(=O)OCC(C)(C)C [Compound D86],>9.8
5,CCOC(OCC)C(=O)c1cncn1[C@H](C)c1ccccc1 [Compound D88],>2.6
6,C=CCOCC(OC)(OC)C(=O)c1cncn1[C@H](C)c1ccccc1 [Compound D75],>11.2
7,COC(OC)(OC)C(=O)c1cnnn1[C@H](C)c1ccccc1 [Compound D42],>1.8
8,C#CCOCC(OC)(OC)C(=O)c1cncn1[C@H](C)c1ccccc1 [Compound D74],>10.2

# System: Sprague-Dawley rats
# Test: Pharmacological effect and adverse reactions under the equivalent dose (2ED50), Group D compounds
# Type: in vivo
# Details: 2ED50, tail vein, rats, n=8
# Source text: Evaluation index: onset time: from the completion of drug injection to the disappearance of forepaw righting reflex in rats; Duration of anesthesia: the time from the disappearance of rat forepaw righting reflex to the recovery of rat forepaw righting reflex; Recovery time of anesthesia: the time from the […] to complete recovery;
SMILES,Righting reflex duration [min],Sedation duration [min]
COC(OC)(OCC(C)(C)C)C(=O)c1ccnn1[C@H](C)c1ccccc1 [Compound D6],1.33 ± 0.19,7.35 ± 1.45
CCOC(OCC)C(=O)c1c(F)ncn1[C@H](C)c1ccccc1 [Compound D101],1.80 ± 0.58,7.20 ± 3.21
COC(OC)(OC)C(=O)c1c(F)ncn1[C@H](C)c1ccccc1 [Compound D93],2.50 ± 0.30,6.89 ± 0.80
C[C@H](c1ccccc1)n1cncc1C(=O)C(=O)OCC(C)(C)C [Compound D86],1.24 ± 0.12,7.88 ± 1.94
CCOC(OCC)C(=O)c1cncn1[C@H](C)c1ccccc1 [Compound D88],1.86 ± 1.02,7.08 ± 1.06
C=CCOCC(OC)(OC)C(=O)c1cncn1[C@H](C)c1ccccc1 [Compound D75],1.59 ± 0.67,5.28 ± 0.68
COC(OC)(OC)C(=O)c1cnnn1[C@H](C)c1ccccc1 [Compound D42],1.38 ± 0.15,3.83 ± 0.74
C#CCOCC(OC)(OC)C(=O)c1cncn1[C@H](C)c1ccccc1 [Compound D74],1.29 ± 0.49,4.78 ± 1.24

# Same assay, conditions: 2ED50, tail vein, rats, n=8; unit min
row,SMILES,Onset time [min]
1,COC(OC)(OCC(C)(C)C)C(=O)c1ccnn1[C@H](C)c1ccccc1 [Compound D6],<1
2,C[C@H](c1ccccc1)n1cncc1C(=O)C(=O)OCC(C)(C)C [Compound D86],<1
3,COC(OC)(OC)C(=O)c1cnnn1[C@H](C)c1ccccc1 [Compound D42],<1
4,C#CCOCC(OC)(OC)C(=O)c1cncn1[C@H](C)c1ccccc1 [Compound D74],<1

# Same assay, conditions: 2ED50, tail vein, rats, n=8; unit s
row,SMILES,Onset time [min]
1,CCOC(OCC)C(=O)c1c(F)ncn1[C@H](C)c1ccccc1 [Compound D101],<0.5
2,COC(OC)(OC)C(=O)c1c(F)ncn1[C@H](C)c1ccccc1 [Compound D93],<0.5
3,CCOC(OCC)C(=O)c1cncn1[C@H](C)c1ccccc1 [Compound D88],<0.5
4,C=CCOCC(OC)(OC)C(=O)c1cncn1[C@H](C)c1ccccc1 [Compound D75],<0.5

# Same assay, conditions: equivalent dose (2 × ED50), number of rats of n = 8
SMILES,Adverse reaction: Convulsions,"Adverse reaction: Cough, broken-winded",Adverse reaction: Euphoria,Adverse reaction: Four limbs rigidity,Adverse reaction: Red urine,"Adverse reaction: Slower breathing, Tetany convulsion","Adverse reaction: Systemic stiffness, Convulsions, Opisthotonus",Adverse reaction: Tongue stretching,Adverse reaction: Tremor
COC(OC)(OCC(C)(C)C)C(=O)c1ccnn1[C@H](C)c1ccccc1 [Compound D6],0,0,0,1,8,0,0,0,2
CCOC(OCC)C(=O)c1c(F)ncn1[C@H](C)c1ccccc1 [Compound D101],0,0,0,0,8,0,2,0,0
COC(OC)(OC)C(=O)c1c(F)ncn1[C@H](C)c1ccccc1 [Compound D93],0,0,0,0,8,0,8,1,0
C[C@H](c1ccccc1)n1cncc1C(=O)C(=O)OCC(C)(C)C [Compound D86],0,0,0,0,8,0,2,0,0
CCOC(OCC)C(=O)c1cncn1[C@H](C)c1ccccc1 [Compound D88],0,0,0,1,8,0,7,1,1
C=CCOCC(OC)(OC)C(=O)c1cncn1[C@H](C)c1ccccc1 [Compound D75],0,0,0,0,8,0,0,0,0
COC(OC)(OC)C(=O)c1cnnn1[C@H](C)c1ccccc1 [Compound D42],6,0,0,0,8,0,0,1,1
C#CCOCC(OC)(OC)C(=O)c1cncn1[C@H](C)c1ccccc1 [Compound D74],0,0,0,1,8,0,0,0,1

# System: Sprague-Dawley rats
# Test: animal or person
# Type: in vivo
# Details: LORR, up and down method, tail vein, rats; class symbols
# Source text: Evaluating indicator: The end point of anesthesia: the disappearance of forepaw righting reflex (lorr) was used as the end point of anesthesia; General anesthesia effect: the disappearance of forepaw righting reflex in rats lasting for 30 seconds is taken as the index of general anesthesia effect; Anesthesia recovery index: the recovery of rat forepaw righting reflex was used as the index of anesthesia recovery.
row,SMILES,ED50
1,C=CCOCC(OC)(OC)C(=O)c1cncn1[C@H](C)c1ccccc1 [Compound D75],+++++ (+++++ indicates that the measured ED50 is greater than 6.00 mg/kg (excluding 6.00 mg/kg))
2,C#CCOCC(OC)(OC)C(=O)c1cncn1[C@H](C)c1ccccc1 [Compound D74],+++++ (+++++ indicates that the measured ED50 is greater than 6.00 mg/kg (excluding 6.00 mg/kg))

# Same assay, conditions: Rattus norvegicus; LORR, up and down method, tail vein, rats; class symbols; read-out: ED50
row,SMILES,ED50 [mg/kg]
1,COC(OC)(OCC(C)(C)C)C(=O)c1ccnn1[C@H](C)c1ccccc1 [Compound D6],2 to 6
2,CCOC(OCC)C(=O)c1c(F)ncn1[C@H](C)c1ccccc1 [Compound D101],0.04 to 0.5
3,COC(OC)(OC)C(=O)c1c(F)ncn1[C@H](C)c1ccccc1 [Compound D93],0.04 to 0.5
4,C[C@H](c1ccccc1)n1cncc1C(=O)C(=O)OCC(C)(C)C [Compound D86],1 to 2
5,CCOC(OCC)C(=O)c1cncn1[C@H](C)c1ccccc1 [Compound D88],1 to 2
6,COC(OC)(OC)C(=O)c1cnnn1[C@H](C)c1ccccc1 [Compound D42],0.04 to 0.5

# Same assay, conditions: rats
row,SMILES,Approximate therapeutic index
1,COC(OC)(OCC(C)(C)C)C(=O)c1ccnn1[C@H](C)c1ccccc1 [Compound D6],>7.3
2,CCOC(OCC)C(=O)c1c(F)ncn1[C@H](C)c1ccccc1 [Compound D101],>10.5
3,COC(OC)(OC)C(=O)c1c(F)ncn1[C@H](C)c1ccccc1 [Compound D93],>25.1
4,C[C@H](c1ccccc1)n1cncc1C(=O)C(=O)OCC(C)(C)C [Compound D86],>7.3
5,CCOC(OCC)C(=O)c1cncn1[C@H](C)c1ccccc1 [Compound D88],>10.3
6,C=CCOCC(OC)(OC)C(=O)c1cncn1[C@H](C)c1ccccc1 [Compound D75],>5.4
7,COC(OC)(OC)C(=O)c1cnnn1[C@H](C)c1ccccc1 [Compound D42],>4.2
8,C#CCOCC(OC)(OC)C(=O)c1cncn1[C@H](C)c1ccccc1 [Compound D74],>16.6
